Laboratory results as given in paper PMC10569036.

assay: shake flask on a mixture of 185; loss from the water phase only; LC-Orbitrap peak areas; settings: room

Compound	log partition 1-octanol / HPLC water, unbuffered, traces of methanol / DMSO [log10]	log partition butyl acetate / HPLC water, unbuffered, traces of methanol / DMSO [log10]	log partition chloroform / HPLC water, unbuffered, traces of methanol / DMSO [log10]	log partition cyclohexane / HPLC water, unbuffered, traces of methanol / DMSO [log10]	log partition dichloromethane / HPLC water, unbuffered, traces of methanol / DMSO [log10]	log partition n-hexane / HPLC water, unbuffered, traces of methanol / DMSO [log10]	log partition n-octane / HPLC water, unbuffered, traces of methanol / DMSO [log10]	log partition n-undecane / HPLC water, unbuffered, traces of methanol / DMSO [log10]	log partition oleylalcohol / HPLC water, unbuffered, traces of methanol / DMSO [log10]	log partition toluene / HPLC water, unbuffered, traces of methanol / DMSO [log10]
CC(=O)c1ccc2ccccc2c1	0.3821	-0.9282	-0.4983	-0.222	-0.6955	0.5227	0.6442	0.226	-0.06645	-0.371
OC(c1ccc(F)cc1)(c1cncnc1)c1ccccc1Cl (stereo not drawn)	2.087	2.226	2.317	2.077	2.933	1.642	1.699	1.456	1.561	2.565
Nc1ccc(/N=N/c2ccccc2)cc1	1.65	1.2	1.001	1.333	1.434	1.192	1.439	1.239	1.015	0.9966
CC(C)(C)c1ccc(O)c(O)c1	0.06578	-0.6544	0.08964	-0.4267	-0.4317	-0.4698	-0.4633	-0.5006	-0.3469	-0.3594
c1ccc(CCCc2ccncc2)cc1	0.08604	-0.4137	-0.0585	-0.2421	0.1807	-0.1192	-0.1298	-0.4578	-0.2233	-0.2508
CC(=O)/C=C/c1ccccc1	0.1948	-0.04199	-0.02485	-0.3829	-0.0685	-0.3815	-0.655	-0.7862	-0.0887	-0.2533
CCCCc1ccc(O)cc1	-0.1262	-0.005316	-0.1217	-0.5302	0.2438	-0.849	-0.6939	-0.8247	-0.3004	-0.3739
Cc1cc(O)cc(C)c1Cl	0.7604	0.7531	0.7311	0.5528	0.8657	0.611	0.5049	0.3954	0.7156	0.8203
O=C(O)c1ccccc1C(c1ccc(O)cc1)c1ccc(O)cc1	-0.6855	0.116	-0.6877	-1.286	-0.3134	-0.9598	-1.232	-1.337	-0.1989	-0.7201
CN1COCN(Cc2cnc(Cl)s2)C1=N[N+](=O)[O-]	-0.1952	0.2434	1.267	-1.812	1.869	-1.862	-1.749	-1.056	-0.5161	-0.2331
CCCC1COC(Cn2cncn2)(c2ccc(Cl)cc2Cl)O1 (stereo not drawn)	0.3483	0.1767	0.2115	0.2977	0.2897	0.2474	0.3088	0.1588	0.003105	0.07569
Cc1cc(SCc2sc(-c3ccc(C(F)(F)F)c(F)c3)nc2C)ccc1OCC(=O)O	-0.1342	0.8792	0.4425	-1.06	0.6672	-1.28	-0.8266	-1.326	0.4514	-0.01784
